Our source for the DC50 and IC50 values is patent publication US20260028354A1, “TETRAHYDRONAPHTHALENE DERIVATIVES AS ESTROGEN RECEPTOR DEGRADERS” (REGENT OF THE UNIVERSITY OF MICHIGAN, priority 2022, published 2026).

In one test the target is ER (Homo sapiens (Human), UniProt P03372). The test is described as follows: In-cell western blot analysis of ER for "B" compounds. Type of test: cell-based. The settings on record: 16 hours, read-out: ICW DC50. The method, boiled down: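 ER levels given as a percentage of untreated/DMSO-treated wells (100%). Detection used primary antibodies for 2 h at room temperature followed by 680 and 800 nm fluorescent secondaries at 1:1000 for 1 h, read by LI-COR imaging.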
Chain of ER (P03372 whole entry): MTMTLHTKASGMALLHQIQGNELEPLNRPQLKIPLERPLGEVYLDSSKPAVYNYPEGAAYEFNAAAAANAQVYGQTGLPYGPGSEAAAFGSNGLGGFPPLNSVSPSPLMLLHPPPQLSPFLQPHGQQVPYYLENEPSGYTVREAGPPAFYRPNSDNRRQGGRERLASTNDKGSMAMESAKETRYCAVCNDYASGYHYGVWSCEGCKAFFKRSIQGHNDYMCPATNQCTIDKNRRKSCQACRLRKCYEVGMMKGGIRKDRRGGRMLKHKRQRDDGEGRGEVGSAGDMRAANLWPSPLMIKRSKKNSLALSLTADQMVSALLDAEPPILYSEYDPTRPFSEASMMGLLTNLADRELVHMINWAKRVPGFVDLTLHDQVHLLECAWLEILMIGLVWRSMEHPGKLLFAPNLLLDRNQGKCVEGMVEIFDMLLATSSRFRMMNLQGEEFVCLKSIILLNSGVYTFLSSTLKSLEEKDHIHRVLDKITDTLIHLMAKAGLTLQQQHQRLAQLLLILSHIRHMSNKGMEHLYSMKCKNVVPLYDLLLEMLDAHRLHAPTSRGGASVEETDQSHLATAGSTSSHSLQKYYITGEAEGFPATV

Test [1] can be described thus: Cell growth assay (WST-8) for "B" compounds. Type of test: cell-based. As to conditions: T47D, read-out: Cell growth Inhibition in T47D cell line IC50. In outline: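 Four-day compound exposure of cells plated at 1500/well the day before. Read-out is WST-8 (10%, 2.5 h, 37 °C) absorbance at 450 nm, normalized to vehicle control over three independent repeats.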
On the technique in general: Tetrazolium assays rely on reduction of a dye to a coloured formazan, in cell work by metabolically active cells.

As usually defined, the IC50 is the point on the concentration scale where inhibition reaches its midpoint.

Like-named read-outs stand apart in the source and are kept apart here.

In the case of `O=C1CCC(N2Cc3cc4c(cc3C2=O)OC[C@@H]2CN(CC(=O)N3CC(Oc5ccc([C@@H]6c7ccc(O)cc7CC[C@@H]6c6ccccc6)cc5)C3)CCN42)C(=O)N1` (stereo partly drawn) [Compound B150, 3-((S)-3-(2-(3-(4-((1R,2S)-6-hydroxy-2-phenyl-1,2,3,4-tetrahydronaphthalen-1-yl)phenoxy)azetidin-1-yl)-2-oxoethyl)-8-oxo-1,2,3,4,4a,5,8,10-octahydro-9H-pyrazino[1′,2′:4,5][1,4]oxazino[2,3-f]isoindol-9-yl)piperidine-2,6-dione], the DC50 at ER is below 10 nM. The IC50 in test [1] (T47D cell line) is below 1 nM.

For `O=C1CCC(N2Cc3cc4c(cc3C2=O)OC[C@@H]2CN(C(=O)CN3CC5(CCN(c6ccc([C@@H]7c8ccc(O)cc8CC[C@@H]7c7ccccc7)cc6)CC5)C3)CCN42)C(=O)N1` (stereo partly drawn) [Compound B142, 3-((S)-3-(2-(7-(4-((1R,2S)-6-hydroxy-2-phenyl-1,2,3,4-tetrahydronaphthalen-1-yl)phenyl)-2,7-diazaspiro[3.5]nonan-2-yl)acetyl)-8-oxo-1,2,3,4,4a,5,8,10-octahydro-9H-pyrazino[1′,2′: 4,5][1,4]oxazino[2,3-f]isoindol-9-yl)piperidine-2,6-dione], on ER, the DC50 is below 10 nM. In addition, in test [1] (T47D cell line), the IC50 is below 1 nM.

For the compound `COc1c2c(cc3c1CN(C1CCC(=O)NC1=O)C3=O)CN(CC(=O)N1CCC3(CC1)CCN(c1ccc([C@@H]4c5ccc(O)cc5CC[C@@H]4c4ccccc4)cc1)CC3)C2` (stereo partly drawn) [Compound B203, 3-(6-(2-(9-(4-((1R,2S)-6-hydroxy-2-phenyl-1,2,3,4-tetrahydronaphthalen-1-yl)phenyl)-3,9-diazaspiro[5.5]undecan-3-yl)-2-oxoethyl)-4-methoxy-1-oxo-3,5,6,7-tetrahydropyrrolo[3,4-f]isoindol-2(1H)-yl)piperidine-2,6-dione], on ER, the DC50 is below 10 nM. For the same compound, the IC50 in test [1] (T47D cell line) was below 1 nM.

Consider `O=C1CCC(N2Cc3cc4c(cc3C2=O)OC[C@@H]2CN(C(=O)CN3CCC5(CC3)CCN(c3ncc([C@@H]6c7ccc(O)cc7CC[C@@H]6c6ccccc6)cn3)CC5)CCN42)C(=O)N1` (stereo partly drawn) [Compound B159, 3-((S)-3-(2-(9-(5-((1S,2S)-6-hydroxy-2-phenyl-1,2,3,4-tetrahydronaphthalen-1-yl)pyrimidin-2-yl)-3,9-diazaspiro[5.5]undecan-3-yl)acetyl)-8-oxo-1,2,3,4,4a,5,8,10-octahydro-9H-pyrazino[1′,2′:4,5][1,4]oxazino[2,3-f]isoindol-9-yl)piperidine-2,6-dione], for which the DC50 at ER lay in the range of 10 to 100 nM. The IC50 in test [1] (T47D cell line) lay within 1 to 10 nM.

`O=C1CCC(N2Cc3c(ccc4c3OC[C@H]3CN(C(=O)CN5CC(Oc6ccc([C@@H]7c8ccc(O)cc8CC[C@@H]7c7ccccc7)cc6)C5)CCN43)C2=O)C(=O)N1` (stereo partly drawn) [Compound B245, 3-((R)-7-(2-(3-(4-((1R,2S)-6-hydroxy-2-phenyl-1,2,3,4-tetrahydronaphthalen-1-yl)phenoxy)azetidin-1-yl)acetyl)-1-oxo-1,3,5,5a,6,7,8,9-octahydro-2H-pyrazino[1′,2′:4,5][1,4]oxazino[2,3-e]isoindol-2-yl)piperidine-2,6-dione]: the DC50 at ER lay within 10 to 100 nM. Besides, the IC50 in test [1] (T47D cell line) was below 1 nM.

For `O=C1CCC(N2Cc3cc4c(cc3C2=O)CC2(C4)CN(C[C@@H]3CCN(c4ccc([C@@H]5c6ccc(O)cc6CC[C@@H]5c5ccccc5)cc4)C3)C2)C(=O)N1` (stereo partly drawn) [Compound B217, 3-(1-(((S)-1-(4-((1R,2S)-6-hydroxy-2-phenyl-1,2,3,4-tetrahydronaphthalen-1-yl)phenyl)pyrrolidin-3-yl)methyl)-1′-oxo-5′,7′-dihydro-1'H-spiro[azetidine-3,6′-cyclopenta[f]isoindol]-2'(3'H)-yl)piperidine-2,6-dione], the DC50 at ER is above 100 nM. Besides, the IC50 in test [1] (T47D cell line) is 1 to 10 nM.

On to `O=C1CCC(N2Cc3c(ccc4c3OCC43CCN(CC4CC5(CCN(c6ccc([C@@H]7c8ccc(O)cc8CC[C@@H]7c7ccccc7)cc6)CC5)C4)CC3)C2=O)C(=O)N1` (stereo partly drawn) [Compound B313, 3-(1′-((7-(4-((1R,2S)-6-hydroxy-2-phenyl-1,2,3,4-tetrahydronaphthalen-1-yl)phenyl)-7-azaspiro[3.5]nonan-2-yl)methyl)-6-oxo-6,8-dihydro-2H,7H-spiro[furo[2,3-e]isoindole-3,4′-piperidin]-7-yl)piperidine-2,6-dione], for which, at ER, the DC50 lay within 10 to 100 nM. Further, in test [1], the IC50 was below 1 nM.

Consider `O=C1CCC(N2Cc3cc4c(cc3C2=O)OC[C@@H]2CN(C(=O)[C@H]3CC[C@H](CN5CCN(c6ccc([C@@H]7c8ccc(O)cc8CC[C@@H]7c7ccccc7)cc6)CC5)CC3)CCN42)C(=O)N1` (stereo partly drawn) [Compound B141, 3-((S)-3-((1R,4S)-4-((4-(4-((1R,2S)-6-hydroxy-2-phenyl-1,2,3,4-tetrahydronaphthalen-1-yl)phenyl)piperazin-1-yl)methyl)cyclohexane-1-carbonyl)-8-oxo-1,2,3,4,4a,5,8,10-octahydro-9H-pyrazino[1′,2′:4,5][1,4]oxazino[2,3-f]isoindol-9-yl)piperidine-2,6-dione], for which, at ER, the DC50 was below 10 nM. Also, the IC50 in test [1] (T47D cell line) is below 1 nM.

As to `O=C1CC[C@H](NC(=O)c2ccc3c(n2)OC[C@H]2CN(CC4COC5(CN(c6ccc([C@@H]7c8ccc(O)cc8CC[C@@H]7c7ccccc7)cc6)C5)OC4)CCN32)C(=O)N1` [Compound B347, (R)-N-((S)-2,6-dioxopiperidin-3-yl)-3-((2-(4-((1R,2S)-6-hydroxy-2-phenyl-1,2,3,4-tetrahydronaphthalen-1-yl)phenyl)-5,9-dioxa-2-azaspiro[3.5]nonan-7-yl)methyl)-1,2,3,4,4a,5-hexahydropyrazino[1,2-d]pyrido[2,3-b][1,4]oxazine-8-carboxamide], the DC50 at ER lay in the range of 10 to 100 nM. Also, the IC50 in test [1] (T47D cell line) was below 1 nM.

Take `O=C1CCC(N2Cc3cc4c(cc3C2=O)OC[C@@H]2CN(CC3CC5(CCN(c6ccc([C@@H]7c8ccc(O)cc8CC[C@@H]7c7ccccc7)cc6)CC5)C3)CCN42)C(=O)N1` (stereo partly drawn) [Compound B211, 3-((S)-3-((7-(4-((1R,2S)-6-hydroxy-2-phenyl-1,2,3,4-tetrahydronaphthalen-1-yl)phenyl)-7-azaspiro[3.5]nonan-2-yl)methyl)-8-oxo-1,2,3,4,4a,5,8,10-octahydro-9H-pyrazino[1′,2′:4,5][1,4]oxazino[2,3-f]isoindol-9-yl)piperidine-2,6-dione]: the DC50 on ER was below 10 nM. Further, in test [1] (T47D cell line), the IC50 is 1 to 10 nM.

For the compound `CN(C(=O)c1ccc2c(c1)OC[C@H]1CN(CC3CCN(c4ccc([C@@H]5c6ccc(O)cc6CC[C@@H]5c5ccccc5)cc4)CC3)CCN21)C1CCC(=O)NC1=O` (stereo partly drawn) [Compound B255, (4aR)-N-(2,6-dioxopiperidin-3-yl)-3-((1-(4-((1R,2S)-6-hydroxy-2-phenyl-1,2,3,4-tetrahydronaphthalen-1-yl)phenyl)piperidin-4-yl)methyl)-N-methyl-1,2,3,4,4a,5-hexahydrobenzo[b]pyrazino[1,2-d][1,4]oxazine-8-carboxamide], at ER, the DC50 was 10 to 100 nM. Further, the IC50 in test [1] (T47D cell line) is 1 to 10 nM.

As to `O=C1CCC(N2Cc3cc4c(cc3C2=O)OC[C@@H]2CN(CC(=O)N3CCC5(CC3)CCN(c3ccc([C@@H]6c7ccc(O)cc7CC[C@@H]6c6ccccc6)cc3)CC5)CCN42)C(=O)N1` (stereo partly drawn) [Compound B147, 3-((S)-3-(2-(9-(4-((1R,2S)-6-hydroxy-2-phenyl-1,2,3,4-tetrahydronaphthalen-1-yl)phenyl)-3,9-diazaspiro[5.5]undecan-3-yl)-2-oxoethyl)-8-oxo-1,2,3,4,4a,5,8,10-octahydro-9H-pyrazino[1′,2′:4,5][1,4]oxazino[2,3-f]isoindol-9-yl)piperidine-2,6-dione], on ER, the DC50 was in the range of 10 to 100 nM. For the same compound, in test [1] (T47D cell line), the IC50 fell in the range of 1 to 10 nM.

For the compound `O=C1CC[C@H](N2Cc3cc4c(cc3C2=O)OC[C@@H]2CN(C[C@@H]3COC5(CCN(c6ccc([C@@H]7c8ccc(O)cc8CC[C@@H]7c7ccccc7)cc6)CC5)C3)CCN42)C(=O)N1` [Compound B399, (S)-3-((S)-3-(((R)-8-(4-((1R,2S)-6-hydroxy-2-phenyl-1,2,3,4-tetrahydronaphthalen-1-yl)phenyl)-1-oxa-8-azaspiro[4.5]decan-3-yl)methyl)-8-oxo-1,2,3,4,4a,5,8,10-octahydro-9H-pyrazino[1′,2′:4,5][1,4]oxazino[2,3-f]isoindol-9-yl)piperidine-2,6-dione], the DC50 at ER was below 10 nM. In addition, in test [1] (T47D cell line), the IC50 is below 1 nM.

With `O=C1CCC(N2Cc3c(ccc4c3OCCC43CCN(CC4CCN(c5ccc([C@@H]6c7ccc(O)cc7CC[C@@H]6c6ccccc6)cc5)CC4)CC3)C2=O)C(=O)N1` (stereo partly drawn) [Compound B165, 3-(1-((1-(4-((1R,2S)-6-hydroxy-2-phenyl-1,2,3,4-tetrahydronaphthalen-1-yl)phenyl)piperidin-4-yl)methyl)-7′-oxo-2′,3′,7′,9′-tetrahydro-8′H-spiro[piperidine-4,4′-pyrano[2,3-e]isoindol]-8′-yl)piperidine-2,6-dione], on ER, the DC50 is above 100 nM. Further, in test [1], the IC50 is below 1 nM.

Regarding `O=C1CCC(N2Cc3cc4c(cc3C2=O)OC[C@@H]2CN(CC3COC5(CCN(c6ccc([C@@H]7c8ccc(O)cc8CC[C@@H]7c7ccccc7)cc6)CC5)O3)CCN42)C(=O)N1` (stereo partly drawn) [Compound B239, 3-((4aS)-3-((8-(4-((1R,2S)-6-hydroxy-2-phenyl-1,2,3,4-tetrahydronaphthalen-1-yl)phenyl)-1,4-dioxa-8-azaspiro[4.5]decan-2-yl)methyl)-8-oxo-1,2,3,4,4a,5,8,10-octahydro-9H-pyrazino[1′,2′:4,5][1,4]oxazino[2,3-f]isoindol-9-yl)piperidine-2,6-dione], at ER, the DC50 is 10 to 100 nM. Moreover, in test [1] (T47D cell line), the IC50 lay within 1 to 10 nM.
